Test results: article PMC5589878, “Development of Fluorescent Probes that Target Serotonin 5-HT2B Receptors” (Scientific Reports, 2017)
Read-outs that look alike come from different tables or passages of the source.

Experiments:
[1] = Absorption and emission spectra (photophysical properties); type: physicochemical; settings: 10 μM solutions
Procedure: The absorption and emission spectra of the fluorescent 5-HT2 ligands (10 and 12) were determined on 10 μM solutions. The most relevant fluorescent properties are collected in Fig. 5. All of the synthesized derivatives emitted fluorescence in the visible region of the spectrum, with selected fluorescent tags (Fig. 4) providing distinctive properties and excitation wavelengths. The excitation wavelengths varied from 305 to 555 nm, whereas those for emission varied from 398 to 580 nm.

5-HT2B receptors [2] = molecular target: T1, 5-HT2B receptors (Homo sapiens, UniProt P41595); assay: Radioligand competition binding assay at human 5-HT2B receptors
T1 sequence (P41595 whole entry): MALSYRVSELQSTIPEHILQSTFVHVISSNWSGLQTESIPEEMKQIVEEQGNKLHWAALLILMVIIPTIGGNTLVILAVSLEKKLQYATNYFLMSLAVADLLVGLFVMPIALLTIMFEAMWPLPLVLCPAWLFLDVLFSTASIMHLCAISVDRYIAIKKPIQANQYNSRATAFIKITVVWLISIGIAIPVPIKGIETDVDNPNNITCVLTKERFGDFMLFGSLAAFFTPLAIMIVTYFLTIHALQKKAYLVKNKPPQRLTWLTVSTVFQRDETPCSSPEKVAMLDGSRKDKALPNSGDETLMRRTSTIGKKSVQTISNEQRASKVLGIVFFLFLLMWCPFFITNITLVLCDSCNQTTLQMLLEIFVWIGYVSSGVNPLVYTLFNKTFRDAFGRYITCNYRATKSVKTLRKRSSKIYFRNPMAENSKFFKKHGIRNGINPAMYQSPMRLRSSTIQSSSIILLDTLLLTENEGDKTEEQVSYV

5-HT2B receptors [3] = molecular target: T1, 5-HT2B receptors; assay: Functional assay of IPs accumulation at human 5-HT2B receptors; type: cell-based
Procedure: After 24 h, growth medium was replaced by serum-free medium containing 10 μCi/mL [^3H]myo-inositol (20.3 Ci/mmol, Perkin-Elmer) for 24 h. […] After the incubation time, assay buffer was discarded and 200 μL of 100 mM formic acid was added to the cells for 30 min at 4 °C and 20 μL of the lysate were transferred to a flexiplate plate (Perkin-Elmer, Waltham, MA, USA) together with 80 μL of a solution of RNA Binding YSi SPA Beads (Perkin-Elmer, Waltham, MA, USA) to measure accumulation of [^3H]IPs (IP1,IP2, and IP3, collectively referred to as IPs).

5-HT2A receptors [4] = molecular target: T2, 5-HT2A receptors (Homo sapiens, UniProt P28223); assay: Labelling of 5-HT2A receptors in live CHO-FA4-5-HT2A cells (fluorescence microscopy, plate reader); type: cell-based; design: expressed in transfected cells; host or cells: CHO-FA4-5-HT2A cells (live)
T2 sequence (P28223 whole entry): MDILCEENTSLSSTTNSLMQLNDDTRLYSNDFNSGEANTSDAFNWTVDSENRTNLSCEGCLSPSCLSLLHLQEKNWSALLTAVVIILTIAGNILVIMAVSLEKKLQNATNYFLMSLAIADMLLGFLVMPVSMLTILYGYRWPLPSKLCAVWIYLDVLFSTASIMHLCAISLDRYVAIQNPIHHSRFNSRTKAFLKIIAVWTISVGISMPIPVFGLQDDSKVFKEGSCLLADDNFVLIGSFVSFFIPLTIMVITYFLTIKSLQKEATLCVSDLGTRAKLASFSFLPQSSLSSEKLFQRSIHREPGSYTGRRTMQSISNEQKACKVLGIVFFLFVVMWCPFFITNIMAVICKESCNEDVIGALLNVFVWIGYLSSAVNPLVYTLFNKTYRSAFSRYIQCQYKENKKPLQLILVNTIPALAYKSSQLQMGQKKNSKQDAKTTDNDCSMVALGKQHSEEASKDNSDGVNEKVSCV
Procedure: The specificity and sensitivity of the 12i probe towards 5-HT2B receptors over other 5-HT2 receptor subtypes was evaluated by performing similar labelling experiments in CHO cells stably expressing 5-HT2A receptors (CHO-FA4-5-HT2A). […] However, even in these conditions (20 μM concentration of 12i) the signal window over background achieved for 5-HT2A labelling was considerably smaller than that detected in the case of 5-HT2B labelling at a concentration of 12i more than 6 times lower (3 μM) (Fig. 9 and Supplementary Figure S3).
(§1) For cell labelling studies, cells were plated onto 96-well plates (Cell Carrier; Perkin-Elmer, Waltham, MA, USA) pre-treated with poly-D-lysine hydrobromide 0.1 mg/mL (Sigma Aldrich, Spain) at a density of 10000 cells/well and cultured for 24 h. […] Fluorescence images were acquired using an Operetta high content imaging instrument (Perkin-Elmer, Waltham, MA, USA) at 20x and 40x magnification, at excitation wavelengths of 520–550 nm and emission wavelengths of 560–630 nm (standard 5-TAMRA filter set) for compound 12i, and excitation wavelengths of 360–400 nm and emission wavelengths of 410–480 nm for Hoechst 33342 (standard Hoechst 33342 filter set).
The fluorescence intensity of the cells labelled with compound 12i was quantified by image analysis of the acquired images using Harmony v3.5 software (Perkin-Elmer). […]

5-HT2B receptors [5] = molecular target: T1, 5-HT2B receptors; type: cell-based; settings: 3 μM, 10 min at 37 °C; image analysis and plate reader; p < 0.001
Procedure: Having finished the preliminary photophysical and pharmacological characterization of the fluorescent derivatives 12a–i, their potential to specifically label 5-HT2B receptors in live cells was evaluated. Chinese hamster ovary K1 (CHO-K1) cells and CHO-K1 cells stably expressing the human serotonin 5-HT2B receptor (CHO-K1-5-HT2B), growing in 96-well plates, were incubated with at least three different concentrations of each compound for varying times and, after compound removal and washing of the cells, plates were subjected to fluorescence microscopy using a high content imaging instrument and the appropriate excitation and emission filter set for each compound.
as §1, with “set). […]” for “set).”

human 5-HT2C receptors = molecular target: T3, human 5-HT2C receptors (Homo sapiens, UniProt P28335); assay: Radioligand competition binding assay at human 5-HT2C receptors
T3 construct: expressed in transfected cells; host or cells: HeLa-5-HT2C cells (membranes)
T3 sequence (P28335 33-458): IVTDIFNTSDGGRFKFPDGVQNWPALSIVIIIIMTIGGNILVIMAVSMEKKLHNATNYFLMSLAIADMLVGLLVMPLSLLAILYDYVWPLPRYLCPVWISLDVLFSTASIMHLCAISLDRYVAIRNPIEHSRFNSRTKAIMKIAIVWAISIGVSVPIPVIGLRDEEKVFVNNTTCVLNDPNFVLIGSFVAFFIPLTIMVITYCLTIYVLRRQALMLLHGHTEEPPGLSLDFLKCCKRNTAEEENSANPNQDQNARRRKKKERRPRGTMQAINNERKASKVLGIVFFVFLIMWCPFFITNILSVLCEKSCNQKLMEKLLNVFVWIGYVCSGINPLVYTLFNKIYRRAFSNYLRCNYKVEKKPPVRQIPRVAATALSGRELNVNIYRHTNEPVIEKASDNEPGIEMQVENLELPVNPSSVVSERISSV

5-HT2A receptors [6] = molecular target: T2, 5-HT2A receptors; assay: Radioligand competition binding assay at human 5-HT2A receptors; design: expressed in transfected cells; host or cells: CHO-FA4-5-HT2A cells (membranes)
[7] = system: tumor necrosis factor alpha (TNF-α); settings: primary aortic smooth muscle cells and animal models; cited from earlier work
[8] = [3H]Mesulergine, membranes from HeLa-5-HT2C cells, read-out: Binding at 5-HT2 receptors Ki 5-HT2C
[9] = [3H]Ketanserin, membranes from CHO-FA4-5-HT2A cells, read-out: Binding at 5-HT2 receptors Ki 5-HT2A

SMILES	Δλ (Stokes shift) [1] [nm]	εmax [1] [M⁻¹ cm⁻¹]	λmax Abs [1] [nm]	λmax Em [1] [nm]	Ki (5-HT2B receptors [2]) [nM]	EC50 (5-HT2B receptors [3]) [nM]	melting point [°C]	specific labelling of 5-HT2A receptors in CHO-FA4-5-HT2A cells (5-HT2A receptors [4]; 3 μM)	specific labelling of 5-HT2A receptors in CHO-FA4-5-HT2A cells (5-HT2A receptors [4]; 20 μM)	fluorescence intensity of CHO-K1-5-HT2B cell wells versus control CHO-K1 cell wells (5-HT2B receptors [5])	Ki (human 5-HT2C receptors) [nM]	Ki (5-HT2A receptors [6]) [nM]	Ki (human 5-HT2C receptors; [8]) [nM]	Ki (5-HT2A receptors [6]; [9]) [nM]	selectivity for the 5-HT2B receptor subtype (5-HT2B receptors [2]; over 5-HT2A and 5-HT2C, from binding Ki) [fold]	potency of blockade of the pro-inflammatory effects of TNF-α [7]
CCN(CC)c1ccc2c(-c3ccccc3C(=O)NCCC(=O)NCCC(=O)NCCCOCCOCCOCCCNC(=O)CCCOc3cc(I)c(OC)cc3CC(C)N)c3ccc(=[N+](CC)CC)cc-3oc2c1 (stereo not drawn) [12i, N-(9-(2-((26-(2-(2-aminopropyl)-5-iodo-4-methoxyphenoxy)-3,7,23-trioxo-12,15,18-trioxa-4,8,22-triazahexacosyl)carbamoyl)phenyl)-6-(diethylamino)-3H-xanthen-3-ylidene)-N-ethylethanaminium]	25	78828	555	580	262	225	151 to 153	no statistically significant specific labelling	certain specific labelling	clearly superior	994	1220				
COC(=O)c1c(C(=O)OCCCNC(=O)CCCOc2cc(I)c(OC)cc2CC(C)N)c2cc3ccccc3cc2c2cc3ccccc3cc12 (stereo not drawn) [12g, 6-(3-(4-(2-(2-aminopropyl)-5-iodo-4-methoxyphenoxy)butanamido)pro-pyl) 7-methyl pentaphene-6,7-dicarboxylate]	123	9977	375	498	283		150 to 152						2280	3700		
COc1cc(CC(C)N)c(OCCCC(=O)NCCCNc2ccc([N+](=O)[O-])c3nonc23)cc1I (stereo not drawn) [12b, 4-(2-(2-aminopropyl)-5-iodo-4-methoxyphenoxy)-N-(3-((7-nitroben-zo[c][1,2,5]oxadiazol-4-yl)amino)propyl)butanamide]	69	23881	461	530	91	3.27	158 to 160				1810	3310			≥ 20	
COc1cc(CC(C)N)c(OC)cc1I (stereo not drawn) [DOI, 1-(2,5-Dimethoxy-4-iodophenyl)-propan-2-amine, reference compound]					48.2	11.7					18.2					≈ 15 pM
CCCCCCC(CCCCCC)N1C(=O)c2ccc3c4ccc5c6c(ccc(c7ccc(c2c37)C1=O)c64)C(=O)N(CCCNC(=O)CCCOc1cc(I)c(OC)cc1CC(C)N)C5=O (stereo not drawn) [12h, 4-(2-(2-aminopropyl)-5-iodo-4-methoxyphenoxy)-N-(3-(1,3,8,10-tetraoxo-9-(tridecan-7-yl)-3,8,9,10-tetrahydroanthra[2,1,9-def:6,5,10-d′e′f′]diisoquinolin-2(1H)-yl)propyl)butanamide]	70	27500	460	530	1410		169 to 171						7990	15000		
